Key:
[1] = compound: Nc1cc(C(F)(F)F)c(-c2cc(N3CCOCC3)nc(N3CCOCC3)n2)cn1 [Buparlisib/NVP-BKM120]
[2] = compound: CC1=CN2C(=O)C=C(N=C2C(=C1)C(C)NC3=CC=CC=C3)N4CCOCC4 [TGX221]
[3] = compound: Cc1cc(Nc2ncc(Cl)c(Nc3ccccc3S(=O)(=O)C(C)C)n2)c(OC(C)C)cc1C1CCNCC1 [Ceritinib/LDK378]
[4] = compound: CC[C@@H]1C(=O)N(C)c2cnc(Nc3ccc(C(=O)N[C@H]4CC[C@H](N5CCN(CC6CC6)CC5)CC4)cc3OC)nc2N1C(C)C [Volasertib/BI6727]
[5] = compound: CN1CC[C@H](c2c(O)cc(O)c3c(=O)cc(-c4ccccc4Cl)oc23)[C@H](O)C1 [Flavopiridol]
[6] = compound: CCC1=CN=CN=C1N2CCN(CC2)CC3=NC4=C(N3)C=C(C=C4)C(F)(F)F
[7] = compound: Cc1nc(Nc2ncc(C(=O)Nc3c(C)cccc3Cl)s2)cc(N2CCN(CCO)CC2)n1 [Dasatinib]
[8] = compound: CN(C)CC[C@H](CSc1ccccc1)Nc1ccc(S(=O)(=O)NC(=O)c2ccc(N3CCN(Cc4ccccc4-c4ccc(Cl)cc4)CC3)cc2)cc1[N+](=O)[O-] [ABT-737]
[9] = compound: COc1cc2nccc(Oc3ccc(NC(=O)C4(C(=O)Nc5ccc(F)cc5)CC4)cc3)c2cc1OC [Cabozantinib]
[10] = compound: CCc1cnn2c(NCc3ccc[n+]([O-])c3)cc(N3CCCC[C@H]3CCO)nc12
[11] = compound: CC(C)n1nc(-c2ccc3oc(N)nc3c2)c2c(N)ncnc21 [INK128/MLN0128]
[12] = compound: C1=CC(=CC(=C1)N2C(=O)C=CC3=CN=C4C=CC(=CC4=C32)C5=CN=C(C=C5)N)C(F)(F)F [Torin2]
[13] = compound: NC(=O)Nc1cc(-c2cccc(F)c2)sc1C(=O)N[C@H]1CCCNC1 [AZD7762]
[14] = compound: CNc1nc(-c2ccc3c(N)n[nH]c3c2)cc(N2C[C@@H](C(=O)NC3CCCCC3)CC[C@H]2C)n1
[15] = compound: CS(=O)(=O)N1CCN(Cc2cc3nc(-c4cccc5[nH]ncc45)nc(N4CCOCC4)c3s2)CC1 [Pictilisib/GDC0941]
[16] = compound: CC(=O)O[C@H]1C(=O)[C@@]2(C)[C@H]([C@H](OC(=O)c3ccccc3)[C@]3(O)C[C@H](OC(=O)[C@H](O)[C@@H](NC(=O)c4ccccc4)c4ccccc4)C(C)=C1C3(C)C)[C@]1(OC(C)=O)CO[C@@H]1C[C@@H]2O [Paclitaxel]
[17] = compound: CN1CCN(C(=O)c2ccc3cc(CCNc4ncnc5ccc(C#N)cc45)ccc3c2)CC1 [senexin b]
[18] = compound: CN(C)C/C=C/C(=O)Nc1ccc(O[C@@H]2CCC[C@@H](Nc3ncc(Cl)c(-c4c[nH]c5ccccc45)n3)C2)cc1 [BSJ-01-175]
[19] = compound: CC(=O)c1c(C)c2cnc(Nc3ccc(N4CCNCC4)cn3)nc2n(C2CCCC2)c1=O
[20] = compound: O=C1NC(=O)[C@@H](c2cn3c4c(cccc24)CCC3)[C@@H]1c1c[nH]c2ccccc12 [Tivantinib/ARQ197]
[21] = compound: CNC(=O)c1cccc(-c2ccc3c(N4CCOC[C@@H]4C)nc(N4CCOC[C@@H]4C)nc3n2)c1 [AZD2014]
[22] = compound: Cc1nc(-c2cn3c(n2)-c2ccc(-c4cnn(C(C)(C)C(N)=O)c4)cc2OCC3)n(C(C)C)n1 [Taselisib/GDC0032]
[23] = compound: Cc1nn(C)c(COc2ccc(N3CCN(S(=O)(=O)N(C)C)CC3)cc2)c1-c1cccc2c(CCCOc3cccc4ccccc34)c(C(=O)O)n(CCN3CCOCC3)c12
[24] = compound: C1=CC2=C(C=CC(=C2)C=C3C(=O)NC(=NCC4=CC=CS4)S3)N=C1 [R0-3306]
[25] = compound: CN(C)C(=O)c1cc2cnc(Nc3ccc(N4CCNCC4)cn3)nc2n1C1CCCC1 [LEE011/Ribociclib]
[26] = compound: CN(C)C/C=C/C(=O)NC1=CC=C(C=C1)C(=O)NC2=CC=CC(=C2)NC3=NC=NC(=C3)C4=CNC5=CC=CC=C54 [THZ-P1-2]
[27] = compound: O=C(c1cc(Cc2n[nH]c(=O)c3ccccc23)ccc1F)N1CCN(C(=O)C2CC2)CC1 [Olaparib/AZD2281]
[28] = compound: CCOc1cc2ncc(C#N)c(Nc3ccc(OCc4ccccn4)c(Cl)c3)c2cc1NC(=O)/C=C/CN(C)C [Neratinib/HKI272]
[29] = compound: CC(C)NC[C@@H](C(=O)N1CCN(c2ncnc3c2[C@H](C)C[C@H]3O)CC1)c1ccc(Cl)cc1 [Ipatasertib/GDC0068]
[30] = compound: CCNC(=O)c1noc(-c2cc(C(C)C)c(O)cc2O)c1-c1ccc(CN2CCOCC2)cc1 [Luminespib/NVP-AUY922]
[31] = compound: COc1cccc2c1C(=O)c1c(O)c3c(c(O)c1C2=O)C[C@@](O)(C(=O)CO)C[C@@H]3O[C@H]1C[C@H](N)[C@H](O)[C@H](C)O1 [Doxorubicin]
[32] = compound: CC(=O)c1c(C)c2cnc(Nc3ccc(N4CCN(CCOCCOCCOCCNC(=O)COc5cccc6c5C(=O)N(C5CCC(=O)NC5=O)C6=O)CC4)cn3)nc2n(C2CCCC2)c1=O [BSJ-03-123]
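Further: breast cancer and non-malignant breast epithelial cell lines, Deep Dye Drop or Dye Drop imaging, nine half-log doses, GR normalized to time-zero plates and DMSO-only controls.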

CAMA1
GR50, 72 h [1]: 1.01 µM
GR50, 72 h [2]: > 10 µM
GR50, 72 h [3]: 1.8 µM
GR50, 72 h [4]: 0.00782 µM
GR50, 72 h [5]: 0.178 µM
GR50, 72 h [6]: > 10 µM
GR50, 72 h [7]: > 10 µM
GR50, 72 h [8]: > 10 µM
GR50, 72 h [9]: 8.39 µM
GR50, 72 h [10]: 0.0146 µM
GR50, 72 h [11]: 0.00961 µM
GR50, 72 h [12]: 0.00918 µM
GR50, 72 h [13]: 0.253 µM
GR50, 72 h [14]: > 10 µM
GR50, 72 h [15]: 1.55 µM
GR50, 72 h [16]: 0.00227 µM
GR50, 72 h [17]: 1.09 µM
GR50, 72 h [18]: 0.101 µM
GR50, 72 h [19]: 0.0742 µM
GR50, 72 h [20]: 0.276 µM
GR50, 72 h [21]: < 0.001 µM
GR50, 72 h [22]: 1.77 µM
GR50, 72 h [23]: > 10 µM
GR50, 72 h [24]: 4.36 µM
GR50, 72 h [25]: 0.0104 µM
GR50, 72 h [26]: 3.39 µM
GR50, 72 h [27]: > 10 µM
GR50, 72 h [28]: 2.83 µM
GR50, 72 h [29]: 0.341 µM
GR50, 72 h [30]: 0.00885 µM
GR50, 72 h [31]: 0.00747 µM
GR50, 72 h [32]: 0.00879 µM

EFM19
GR50, 72 h [1]: 0.706 µM
GR50, 72 h [2]: > 10 µM
GR50, 72 h [3]: 5.52 µM
GR50, 72 h [4]: 0.0101 µM
GR50, 72 h [5]: 0.284 µM
GR50, 72 h [6]: > 10 µM
GR50, 72 h [7]: 0.0184 µM
GR50, 72 h [8]: 8.35 µM
GR50, 72 h [9]: > 10 µM
GR50, 72 h [10]: 0.0283 µM
GR50, 72 h [11]: 0.00896 µM
GR50, 72 h [12]: 0.0114 µM
GR50, 72 h [13]: 1.48 µM
GR50, 72 h [14]: 2.18 µM
GR50, 72 h [15]: 0.23 µM
GR50, 72 h [16]: 0.00438 µM
GR50, 72 h [17]: > 10 µM
GR50, 72 h [18]: 1.51 µM
GR50, 72 h [19]: 0.525 µM
GR50, 72 h [20]: 0.658 µM
GR50, 72 h [21]: 0.00131 µM
GR50, 72 h [22]: 0.00333 µM
GR50, 72 h [23]: > 10 µM
GR50, 72 h [24]: 6.14 µM
GR50, 72 h [25]: 1.71 µM
GR50, 72 h [26]: 6.33 µM
GR50, 72 h [27]: > 10 µM
GR50, 72 h [28]: > 3.16 µM
GR50, 72 h [29]: 1.45 µM
GR50, 72 h [30]: 0.021 µM
GR50, 72 h [31]: 0.0513 µM
GR50, 72 h [32]: 1.23 µM

EVSAT
GR50, 72 h [1]: 1.04 µM
GR50, 72 h [2]: 1.39 µM
GR50, 72 h [3]: 6.18 µM
GR50, 72 h [4]: 0.00932 µM
GR50, 72 h [5]: 0.369 µM
GR50, 72 h [6]: > 10 µM
GR50, 72 h [7]: 0.166 µM
GR50, 72 h [8]: > 10 µM
GR50, 72 h [9]: > 10 µM
GR50, 72 h [10]: 0.0263 µM
GR50, 72 h [11]: 0.0112 µM
GR50, 72 h [12]: 0.015 µM
GR50, 72 h [13]: 1.42 µM
GR50, 72 h [14]: 1.77 µM
GR50, 72 h [15]: 0.621 µM
GR50, 72 h [16]: 0.00167 µM
GR50, 72 h [17]: > 10 µM
GR50, 72 h [18]: 0.146 µM
GR50, 72 h [19]: > 3.16 µM
GR50, 72 h [20]: 0.373 µM
GR50, 72 h [21]: 0.00617 µM
GR50, 72 h [22]: 0.517 µM
GR50, 72 h [23]: > 10 µM
GR50, 72 h [24]: 5.54 µM
GR50, 72 h [25]: > 10 µM
GR50, 72 h [26]: > 10 µM
GR50, 72 h [27]: > 10 µM
GR50, 72 h [28]: > 3.16 µM
GR50, 72 h [29]: 0.256 µM
GR50, 72 h [30]: 0.00716 µM
GR50, 72 h [31]: 0.00911 µM
GR50, 72 h [32]: 3.31 µM

HCC38
GR50, 72 h [1]: 1.27 µM
GR50, 72 h [2]: > 10 µM
GR50, 72 h [3]: 1.83 µM
GR50, 72 h [4]: 0.00822 µM
GR50, 72 h [5]: 0.139 µM
GR50, 72 h [6]: > 10 µM
GR50, 72 h [7]: 5.69 µM
GR50, 72 h [8]: 0.998 µM
GR50, 72 h [9]: 7.6 µM
GR50, 72 h [10]: 0.0126 µM
GR50, 72 h [11]: 0.0191 µM
GR50, 72 h [12]: 0.0105 µM
GR50, 72 h [13]: 0.00948 µM
GR50, 72 h [14]: > 10 µM
GR50, 72 h [15]: 6.55 µM
GR50, 72 h [16]: 0.00147 µM
GR50, 72 h [17]: > 10 µM
GR50, 72 h [18]: 0.13 µM
GR50, 72 h [19]: 0.0597 µM
GR50, 72 h [20]: 0.309 µM
GR50, 72 h [21]: 0.452 µM
GR50, 72 h [22]: 2.7 µM
GR50, 72 h [23]: > 10 µM
GR50, 72 h [24]: 7.29 µM
GR50, 72 h [25]: 0.537 µM
GR50, 72 h [26]: 4.23 µM
GR50, 72 h [27]: 8.42 µM
GR50, 72 h [28]: 3.15 µM
GR50, 72 h [29]: > 10 µM
GR50, 72 h [30]: 0.00714 µM
GR50, 72 h [31]: 0.00955 µM
GR50, 72 h [32]: 0.0453 µM

— the supplement of paper PMC9663587
